Assays:
[1] = system: New Zealand rabbits suffered with acute intraocular hypertension; experiment: Intraocular pressure reduction test in acute intraocular hypertension model; type: in vivo, New Zealand white rabbits; settings: for Intraocular pressure in left eye: left eye (solvent only); for Intraocular pressure in right eye: 50 μL, right eye (modelled, dosed)
Excerpt: Acute intraocular hypertension was induced for rabbits by injection of a viscoelastic agent into the anterior chamber, and the effects of ocular pressure reduction of the compound of formula (I) were inspected by administration of eye drops at different concentrations.
Male New Zealand white rabbits, aged 97 to 127 days, weighted 2.5 to 3.4 kg, purchased from Pizhou Oriental Breeding Co., Ltd.
50 male New Zealand white rabbits were randomly divided into 5 groups according to body weight, 10 rabbits/group. The anterior chambers of the right eyes of animals in Groups 1 to 5 were injected with medical sodium hyaluronate gel in a single dose, 100 μL/eye, to induce ocular hypertension in the animals. In 5 to 15 min after molding, the right eye was administrated dropwise with the solvent, K-115, and the test article (compounds of formula (I) of different concentrations), and the left eye was administrated dropwise with the solvent, 50 μL/eye; and the intraocular pressures of the animals in both eyes were measured before administration, as well as at 2, 4, 6, 8, and 10 h after administration, respectively.

[2] = system: New Zealand rabbits with normal intraocular pressure; experiment: Intraocular pressure reduction, normal intraocular pressure, eye drops in both eyes for 14 days (Operation I); type: in vivo, New Zealand white rabbits; settings: for Change in intraocular pressure: vs negative control
Excerpt: An intraocular pressure reduction effect and potential ocular toxicity of the compound of formula (I) were inspected with rabbits with normal intraocular pressure by repeated administration of eye drops for 14 days.
Male New Zealand white rabbits, aged 97 to 127 days, weighted 2.6-3.5 kg, purchased from Pizhou Oriental Breeding Co., Ltd.
The Male New Zealand white rabbits were randomly divided into 7 groups according to body weights, 6 rabbits/group. The animals in Groups 1 to 7 were administrated dropwise with a solvent/control/test article in both eyes in an administration volume of 50 μL/eye, once a day for 14 consecutive days, and the day of first administration was recorded as Day 1. The intraocular pressures of the animals were measured before administration, as well as at 1, 2, 4, 6, 8 and 10 h after administration, respectively. On Days 2 to 14, the intraocular pressures of animals in the K-115 administration group were measured at 1 h after daily administration; and intraocular pressures of the animals in the remaining groups were measured at 4 h after daily administration.

[3] = 0.5 mg/mL once a day, Day 2, 4 h after daily administration
[4] = 0.5 mg/mL once a day, Day 3, 4 h after daily administration
[5] = 0.5 mg/mL once a day, Day 4, 4 h after daily administration
[6] = 0.5 mg/mL once a day, Day 5, 4 h after daily administration
[7] = 0.5 mg/mL once a day, Day 6, 4 h after daily administration
[8] = 0.5 mg/mL once a day, Day 7, 4 h after daily administration
[9] = 0.5 mg/mL, Day 1, 1 h after administration
[10] = 0.5 mg/mL, Day 1, 2 h after administration
[11] = 0.5 mg/mL, Day 1, 4 h after administration
[12] = 0.5 mg/mL, Day 1, 6 h after administration
[13] = 0.5 mg/mL, Day 1, 8 h after administration
[14] = 0.5 mg/mL, Day 1, 10 h after administration
[15] = 0.5 mg/mL, Day 1, before administration
[16] = 1.0 mg/mL once a day, Day 2, 4 h after daily administration
[17] = 1.0 mg/mL once a day, Day 3, 4 h after daily administration
[18] = 1.0 mg/mL once a day, Day 4, 4 h after daily administration
[19] = 1.0 mg/mL once a day, Day 5, 4 h after daily administration
[20] = 1.0 mg/mL once a day, Day 6, 4 h after daily administration
[21] = 1.0 mg/mL once a day, Day 7, 4 h after daily administration
[22] = 1.0 mg/mL, Day 1, 1 h after administration
[23] = 1.0 mg/mL, Day 1, 2 h after administration
[24] = 1.0 mg/mL, Day 1, 4 h after administration
[25] = 1.0 mg/mL, Day 1, 6 h after administration
[26] = 1.0 mg/mL, Day 1, 8 h after administration
[27] = 1.0 mg/mL, Day 1, 10 h after administration

SMILES: Cc1ccc(C(=O)OCn2cc(C)c3c(S(=O)(=O)N4CC[C@H](N)C4)cccc3c2=O)c(C)c1 [Compound of formula (I)]
- Intraocular pressure in left eye ([1]; 0.25 mg/mL group, 2 h after administration): 6.07 mmHg
- Intraocular pressure in left eye ([1]; 0.25 mg/mL group, 4 h after administration): 6.60 mmHg
- Intraocular pressure in left eye ([1]; 0.25 mg/mL group, 6 h after administration): 9.10 mmHg
- Intraocular pressure in left eye ([1]; 0.25 mg/mL group, 8 h after administration): 11.50 mmHg
- Intraocular pressure in left eye ([1]; 0.25 mg/mL group, 10 h after administration): 12.43 mmHg
- Intraocular pressure in left eye ([1]; 0.25 mg/mL group, before administration): 10.53 mmHg
- Intraocular pressure in right eye ([1]; 0.25 mg/mL, 2 h after administration): 8.47 mmHg
- Intraocular pressure in right eye ([1]; 0.25 mg/mL, 4 h after administration): 8.60 mmHg
- Intraocular pressure in right eye ([1]; 0.25 mg/mL, 6 h after administration): 11.20 mmHg
- Intraocular pressure in right eye ([1]; 0.25 mg/mL, 8 h after administration): 13.37 mmHg
- Intraocular pressure in right eye ([1]; 0.25 mg/mL, 10 h after administration): 13.10 mmHg
- Intraocular pressure in right eye ([1]; 0.25 mg/mL, before administration): 11.43 mmHg
- Intraocular pressure in left eye ([1]; 2.0 mg/mL group, 2 h after administration): 6.60 mmHg
- Intraocular pressure in left eye ([1]; 2.0 mg/mL group, 4 h after administration): 7.04 mmHg
- Intraocular pressure in left eye ([1]; 2.0 mg/mL group, 6 h after administration): 11.23 mmHg
- Intraocular pressure in left eye ([1]; 2.0 mg/mL group, 8 h after administration): 12.84 mmHg
- Intraocular pressure in left eye ([1]; 2.0 mg/mL group, 10 h after administration): 13.10 mmHg
- Intraocular pressure in left eye ([1]; 2.0 mg/mL group, before administration): 11.27 mmHg
- Intraocular pressure in right eye ([1]; 2.0 mg/mL, 2 h after administration): 8.52 mmHg
- Intraocular pressure in right eye ([1]; 2.0 mg/mL, 4 h after administration): 11.56 mmHg
- Intraocular pressure in right eye ([1]; 2.0 mg/mL, 6 h after administration): 13.81 mmHg
- Intraocular pressure in right eye ([1]; 2.0 mg/mL, 8 h after administration): 12.96 mmHg
- Intraocular pressure in right eye ([1]; 2.0 mg/mL, 10 h after administration): 11.96 mmHg
- Intraocular pressure in right eye ([1]; 2.0 mg/mL, before administration): 11.23 mmHg
- Intraocular pressure in left eye ([1]; 8.0 mg/mL group, 2 h after administration): 5.93 mmHg
- Intraocular pressure in left eye ([1]; 8.0 mg/mL group, 4 h after administration): 6.43 mmHg
- Intraocular pressure in left eye ([1]; 8.0 mg/mL group, 6 h after administration): 10.10 mmHg
- Intraocular pressure in left eye ([1]; 8.0 mg/mL group, 8 h after administration): 11.87 mmHg
- Intraocular pressure in left eye ([1]; 8.0 mg/mL group, 10 h after administration): 13.19 mmHg
- Intraocular pressure in left eye ([1]; 8.0 mg/mL group, before administration): 11.20 mmHg
- Intraocular pressure in right eye ([1]; 8.0 mg/mL, 2 h after administration): 7.40 mmHg
- Intraocular pressure in right eye ([1]; 8.0 mg/mL, 4 h after administration): 7.97 mmHg
- Intraocular pressure in right eye ([1]; 8.0 mg/mL, 6 h after administration): 8.84 mmHg
- Intraocular pressure in right eye ([1]; 8.0 mg/mL, 8 h after administration): 8.60 mmHg
- Intraocular pressure in right eye ([1]; 8.0 mg/mL, 10 h after administration): 8.78 mmHg
- Intraocular pressure in right eye ([1]; 8.0 mg/mL, before administration): 11.53 mmHg
- Intraocular pressure reduction effect (conclusion) ([1]; at different test doses (0.25, 2.0, 8.0 mg/mL), amplitude and sustained effect better than K-115): good intraocular pressure reduction effects
- Average intraocular pressure in both eyes [2, 3]: 7.94 mmHg
- Change in intraocular pressure [2, 3]: 3.14 mmHg
- Average intraocular pressure in both eyes [2, 4]: 7.31 mmHg
- Change in intraocular pressure [2, 4]: 3.08 mmHg
- Average intraocular pressure in both eyes [2, 5]: 7.78 mmHg
- Change in intraocular pressure [2, 5]: 2.83 mmHg
- Average intraocular pressure in both eyes [2, 6]: 7.19 mmHg
- Change in intraocular pressure [2, 6]: 3.78 mmHg
- Average intraocular pressure in both eyes [2, 7]: 6.61 mmHg
- Change in intraocular pressure [2, 7]: 2.7 mmHg
- Average intraocular pressure in both eyes [2, 8]: 6.00 mmHg
- Change in intraocular pressure [2, 8]: 4.06 mmHg
- Change in intraocular pressure ([2]; 0.5 mg/mL once a day, Day 8, 4 h after daily administration): 4.2 mmHg
- Change in intraocular pressure ([2]; 0.5 mg/mL once a day, Day 9, 4 h after daily administration): 3.25 mmHg
- Change in intraocular pressure ([2]; 0.5 mg/mL once a day, Day 10, 4 h after daily administration): 3 mmHg
- Change in intraocular pressure ([2]; 0.5 mg/mL once a day, Day 11, 4 h after daily administration): 3.25 mmHg
- Change in intraocular pressure ([2]; 0.5 mg/mL once a day, Day 12, 4 h after daily administration): 3.28 mmHg
- Change in intraocular pressure ([2]; 0.5 mg/mL once a day, Day 13, 4 h after daily administration): 3.31 mmHg
- Change in intraocular pressure ([2]; 0.5 mg/mL once a day, Day 14, 4 h after daily administration): 3.72 mmHg
- Average intraocular pressure in both eyes [2, 9]: 8.83 mmHg
- Change in intraocular pressure [2, 9]: 1.48 mmHg
- Average intraocular pressure in both eyes [2, 10]: 7.56 mmHg
- Change in intraocular pressure [2, 10]: 3.41 mmHg
- Average intraocular pressure in both eyes [2, 11]: 7.11 mmHg
- Change in intraocular pressure [2, 11]: 4.2 mmHg
- Average intraocular pressure in both eyes [2, 12]: 9.61 mmHg
- Change in intraocular pressure [2, 12]: 2.33 mmHg
- Average intraocular pressure in both eyes [2, 13]: 9.06 mmHg
- Change in intraocular pressure [2, 13]: 3.91 mmHg
- Average intraocular pressure in both eyes [2, 14]: 9.97 mmHg
- Change in intraocular pressure [2, 14]: 4.45 mmHg
- Average intraocular pressure in both eyes [2, 15]: 10.11 mmHg
- Change in intraocular pressure [2, 15]: −0.22 mmHg
- Average intraocular pressure in both eyes [2, 16]: 7.64 mmHg
- Change in intraocular pressure [2, 16]: 3.44 mmHg
- Average intraocular pressure in both eyes [2, 17]: 7.50 mmHg
- Change in intraocular pressure [2, 17]: 2.89 mmHg
- Average intraocular pressure in both eyes [2, 18]: 7.33 mmHg
- Change in intraocular pressure [2, 18]: 3.28 mmHg
- Average intraocular pressure in both eyes [2, 19]: 7.44 mmHg
- Change in intraocular pressure [2, 19]: 3.53 mmHg
- Average intraocular pressure in both eyes [2, 20]: 6.92 mmHg
- Change in intraocular pressure [2, 20]: 2.39 mmHg
- Average intraocular pressure in both eyes [2, 21]: 7.00 mmHg
- Change in intraocular pressure [2, 21]: 3.06 mmHg
- Change in intraocular pressure ([2]; 1.0 mg/mL once a day, Day 8, 4 h after daily administration): 4.03 mmHg
- Change in intraocular pressure ([2]; 1.0 mg/mL once a day, Day 9, 4 h after daily administration): 2.5 mmHg
- Change in intraocular pressure ([2]; 1.0 mg/mL once a day, Day 10, 4 h after daily administration): 2.44 mmHg
- Change in intraocular pressure ([2]; 1.0 mg/mL once a day, Day 11, 4 h after daily administration): 2.19 mmHg
- Change in intraocular pressure ([2]; 1.0 mg/mL once a day, Day 12, 4 h after daily administration): 2.64 mmHg
- Change in intraocular pressure ([2]; 1.0 mg/mL once a day, Day 13, 4 h after daily administration): 3.33 mmHg
- Change in intraocular pressure ([2]; 1.0 mg/mL once a day, Day 14, 4 h after daily administration): 3.53 mmHg
- Average intraocular pressure in both eyes [2, 22]: 7.08 mmHg
- Change in intraocular pressure [2, 22]: 3.23 mmHg
- Average intraocular pressure in both eyes [2, 23]: 6.67 mmHg
- Change in intraocular pressure [2, 23]: 4.3 mmHg
- Average intraocular pressure in both eyes [2, 24]: 6.44 mmHg
- Change in intraocular pressure [2, 24]: 4.87 mmHg
- Average intraocular pressure in both eyes [2, 25]: 8.00 mmHg
- Change in intraocular pressure [2, 25]: 3.94 mmHg
- Average intraocular pressure in both eyes [2, 26]: 9.22 mmHg
- Change in intraocular pressure [2, 26]: 3.75 mmHg
- Average intraocular pressure in both eyes [2, 27]: 10.56 mmHg
- Change in intraocular pressure [2, 27]: 3.86 mmHg
- Average intraocular pressure in both eyes ([2]; 1.0 mg/mL, Day 1, before administration): 9.94 mmHg

From US12624017B2, “Salt form of isoquinolinone type compound as rock inhibitor and preparation method therefor” (GUANGZHOU OCUSUN OPHTHALMIC BIOTECHNOLOGY CO., LTD., priority 2020, dated 2026)
